The record followed here is patent publication US20260166029A1, “METHODS AND SYSTEMS FOR TREATING DISEASE USING AN ATR/CHK1 SIGNALING PATHWAY INHIBITOR” (Acrivon Therapeutics, Inc., priority 2022, published 2026).

The subject of one assay is A2780. The assay is described as follows: Cell Titer Glo 2.0 relative cell viability, 72 h (Example 10). Particulars: Homo sapiens, A2780 cell line, read-out: Abs IC50. The format is cell-based. The protocol: (§1) The present Example provides experimental evidence that cell lines predicted to be sensitive to a Chk1 inhibitor (e.g., prexasertib, are also sensitive to Wee1 inhibitors (e.g., adavosertib (AZD1775, MK1775) and azenosertib (Zn-C3)). Cell lines were treated with increasing doses of either prexasertib, adavosertib, or azenosertib, and relative cell viability against a DMSO control was assessed 72 h after drug treatment using Cell Titer Glo 2.0 (Promega) and a SpectraMax microplate reader. The results are shown in FIGS. 19A-19C. Error bars represent standard deviations from quadruplicate samples.
Background: ATP-based viability assays read luminescence as a measure of living cells.

Another assay has as its system A375. Described as above. It is filed as cell-based. Particulars: Homo sapiens, A-375, A375 cell line, read-out: Abs IC50. The method, then:
as §1

The next assay has as its system BxPC3. Described as above. It is filed as cell-based. The note with it: Homo sapiens, BXPC-3, BxPC3 cell line, read-out: Abs IC50. The method, then: as §1
For another assay, the system named is HeLa. Described as above. The note with it: Homo sapiens, HeLa cell line, read-out: Abs IC50. It is filed as cell-based. The protocol:
as §1

The next assay relates to OVCAR3. The description is as above. It is filed as cell-based. The note with it: Homo sapiens, OVCAR-3, OVCAR3 cell line, read-out: Abs IC50. The method, then: as §1
A further assay deals with PC3. Described as above. The note with it: Homo sapiens, PC-3, PC3 cell line, read-out: Abs IC50. The format is cell-based. The protocol: as §1
In a further assay the test system is T47D. The assay is described as above. It is filed as cell-based. Particulars: Homo sapiens, T47D cell line, read-out: Abs IC50. The protocol:
as §1

The subject of assay [1] is OVCAR3-P and OVCAR3-R cells. As to the kind of experiment: Global pan-/phospho-proteomic analysis and western blot after gemcitabine (Example 12). The note with it: gemcitabine 10 nM for 24 hours vs DMSO control. The format is cell-based, human. The protocol: To determine whether treatment with gemcitabine can alter the abundance of biomarkers associated with a Response-Predictive Signature, a global pan-proteomic and phosphor-proteomic analysis was performed to compare treatment with low dose gemcitabine (10 nM for 24 hours) to DMSO control in both OVCAR3-P and OVCAR3-R cells.

The structures appear in SMILES notation. Some results are limits rather than exact numbers.

Take `C=CCn1c(=O)c2cnc(Nc3ccc(N4CCN(C)CC4)cc3)nc2n1-c1cccc(C(C)(C)O)n1` [Adavosertib]: the IC50 – broadly, the point on the concentration scale where inhibition reaches its midpoint – with A2780 is 653 nM; with A375 it was 170 nM; in the assay on BxPC3, 360 nM; in the assay with HeLa, 328 nM; in the assay with OVCAR3 it was 237 nM; in the assay on PC3 it was more than 10 µM. Moreover, the IC50 in the assay with T47D was more than 10 µM.
`C=CCn1c(=O)c2cnc(Nc3ccc(N4CCN(C)CC4)cc3)nc2n1-c1ccc2c(n1)[C@@](O)(CC)CC2` [Azenosertib]: the concentration for half-maximal inhibition (IC50) was 900 nM in the assay with A2780; 239 nM in the assay with A375; 448 nM in the assay on BxPC3; 604 nM in the assay with HeLa; 233 nM with OVCAR3; more than 10 µM in the assay on PC3. The half-maximal inhibitory concentration (IC50) in the assay with T47D was more than 10 µM.
With `Nc1ccn([C@@H]2O[C@H](CO)[C@@H](O)C2(F)F)c(=O)n1` [gemcitabine, 2′,2′-difluoro 2′-deoxycytidine], in assay [1], the “Ser296 phosphorylated Chk1 (BM1) abundance” value is on record as “significant increase” and the “abundance of total cyclin E1 (BM3)” value was “significant increase”.
